The record followed here is PubChem BioAssay (NCI).

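Cells were grown in 96-well plates and exposed to each compound for 48 hours at five concentrations; endpoints were interpolated linearly between bracketing concentrations, or set to the highest concentration if not reached. TGI: total growth inhibition.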

The first experiment relates to COLO 205 colon. Put plainly: inhibition of tumour cell growth, NCI panel, 48 h.
With `CC(C)=CCc1c(O)ccc2ccc(=O)oc12`, the TGI was above 100 µM.
On the same count and under the same terms, the same measure for `COC(=O)C1C=CN(N(C)C)C2=C1C(=O)c1c(O)cccc1C2=O` (stereo not given): 3.66 µM.

Another experiment deals with EKVX NSCLC. Put plainly: inhibition of tumour cell growth, NCI panel, 48 h.
In the case of `CC#C[P+](c1ccccc1)(c1ccccc1)c1ccccc1`, the TGI was found to be 22.5 µM.
Still for that read-out and setting: the same measure for `CCCC(O)C(NC(=O)CCl)C(=O)O` (stereo not given): above 100 µM; for `COc1ccc(/C=N/n2c(-c3ccccc3)n[nH]c2=O)cc1`: above 100 µM; for `O=P(O)(Cc1ccccc1)c1ccccc1-c1ccccc1`: above 100 µM.
On the same count and under the same terms, the figure for `CC12CC(C#N)(C#N)C(C#N)(CO1)C(=N)O2` (stereo not given) is above 100 µM; for `COc1cc(/C=C/C(=O)O)ccc1C(=O)OCc1ccccc1` it is above 100 µM; for `Cc1cccc(C(C)C)c1NC(=O)CC1Sc2ccccc2NC1=O` (stereo not given) it is above 100 µM.
As for `COc1cccc2c1C(=O)c1c(O)c3c(c(O)c1C2=O)C[C@@](O)(C(=O)CO)C[C@@H]3OC1CC(N)C(OC)C(C)O1` (stereo not given in full), the TGI came out at 9.35 µM.
Still for that read-out and setting: the same measure for `CC(C)(C)NC(=O)N1N=C(c2ccccc2)C1c1ccccc1` (stereo not given): above 100 µM.
In turn, `COc1cc2c(cc1O)C1C(O)C(O)C=C3CCN(C2)C31` (stereo not given) came in with a TGI of 14.8 µM.
Same read-out and setting: the same measure for `CC(C)=CCc1c(O)ccc2ccc(=O)oc12`: above 100 µM; for `COC(=O)C1C=CN(N(C)C)C2=C1C(=O)c1c(O)cccc1C2=O` (stereo not given): 11 µM.

In the next experiment the test system is HCC-2998 colon. Put plainly: inhibition of tumour cell growth, NCI panel, 48 h.
In turn, `CC#C[P+](c1ccccc1)(c1ccccc1)c1ccccc1` gave a TGI of 14.5 µM.
Molecule `CCCC(O)C(NC(=O)CCl)C(=O)O` (stereo not given) yielded a TGI above 100 µM.
On to `COc1ccc(/C=N/n2c(-c3ccccc3)n[nH]c2=O)cc1`, for which the TGI is above 100 µM.
The same measure, in the same setting: the same measure for `O=P(O)(Cc1ccccc1)c1ccccc1-c1ccccc1`: above 100 µM; for `CC12CC(C#N)(C#N)C(C#N)(CO1)C(=N)O2` (stereo not given): above 100 µM; for `COc1cc(/C=C/C(=O)O)ccc1C(=O)OCc1ccccc1`: above 100 µM.
On the same count and under the same terms, the same measure for `O=C(CC(=O)c1ccccc1)CC(O)(c1ccccc1)c1ccccc1`: 23.8 µM; for `Cc1cccc(C(C)C)c1NC(=O)CC1Sc2ccccc2NC1=O` (stereo not given): above 100 µM; for `COc1cccc2c1C(=O)c1c(O)c3c(c(O)c1C2=O)C[C@@](O)(C(=O)CO)C[C@@H]3OC1CC(N)C(OC)C(C)O1` (stereo not given in full): 0.763 µM.
The same measure, in the same setting: the figure for `CC(C)(C)NC(=O)N1N=C(c2ccccc2)C1c1ccccc1` (stereo not given) is above 100 µM.
On to `COc1cc2c(cc1O)C1C(O)C(O)C=C3CCN(C2)C31` (stereo not given), for which the TGI was determined as 8.44 µM.
Same read-out and setting: the same measure for `CC(C)=CCc1c(O)ccc2ccc(=O)oc12`: above 100 µM; for `COC(=O)C1C=CN(N(C)C)C2=C1C(=O)c1c(O)cccc1C2=O` (stereo not given): 3.67 µM.

For another experiment, the system named is K-562 leukemia. The experiment in a line: inhibition of tumour cell growth, NCI panel, 48 h.
On to `CC#C[P+](c1ccccc1)(c1ccccc1)c1ccccc1`, for which the TGI came out at 11.8 µM.
Same read-out and setting: the figure for `CCCC(O)C(NC(=O)CCl)C(=O)O` (stereo not given) is above 100 µM.
`COc1ccc(/C=N/n2c(-c3ccccc3)n[nH]c2=O)cc1` displayed a TGI above 100 µM.
`O=P(O)(Cc1ccccc1)c1ccccc1-c1ccccc1` returned a TGI above 100 µM.
Still for that read-out and setting: the same measure for `CC12CC(C#N)(C#N)C(C#N)(CO1)C(=N)O2` (stereo not given): above 100 µM; for `COc1cc(/C=C/C(=O)O)ccc1C(=O)OCc1ccccc1`: above 100 µM; for `O=C(CC(=O)c1ccccc1)CC(O)(c1ccccc1)c1ccccc1`: 33.4 µM.
`Cc1cccc(C(C)C)c1NC(=O)CC1Sc2ccccc2NC1=O` (stereo not given) returned a TGI above 100 µM.
On the same count and under the same terms, the same measure for `COc1cccc2c1C(=O)c1c(O)c3c(c(O)c1C2=O)C[C@@](O)(C(=O)CO)C[C@@H]3OC1CC(N)C(OC)C(C)O1` (stereo not given in full): 0.0483 µM.
In turn, `COc1cc2c(cc1O)C1C(O)C(O)C=C3CCN(C2)C31` (stereo not given) registered a TGI above 100 µM.
Still for that read-out and setting: the figure for `CC(C)=CCc1c(O)ccc2ccc(=O)oc12` is above 100 µM.
On the same count and under the same terms, the figure for `COC(=O)C1C=CN(N(C)C)C2=C1C(=O)c1c(O)cccc1C2=O` (stereo not given) is 52.1 µM.

Another experiment relates to MDA-MB-435. Put plainly: inhibition of tumour cell growth, NCI panel, 48 h.
Consider `COc1ccc(/C=N/n2c(-c3ccccc3)n[nH]c2=O)cc1`, for which the TGI was above 100 µM.
On the same count and under the same terms, the same measure for `CC12CC(C#N)(C#N)C(C#N)(CO1)C(=N)O2` (stereo not given): above 100 µM.

The next experiment deals with NCI-H460 lung. The experiment in a line: inhibition of tumour cell growth, NCI panel, 48 h.
The molecule `CC#C[P+](c1ccccc1)(c1ccccc1)c1ccccc1` came in with a TGI of 19.2 µM.
The molecule `CCCC(O)C(NC(=O)CCl)C(=O)O` (stereo not given) displayed a TGI above 100 µM.
Take `COc1ccc(/C=N/n2c(-c3ccccc3)n[nH]c2=O)cc1`: the TGI is above 100 µM.
On the same count and under the same terms, the figure for `O=P(O)(Cc1ccccc1)c1ccccc1-c1ccccc1` is above 100 µM.
Same read-out and setting: the same measure for `CC12CC(C#N)(C#N)C(C#N)(CO1)C(=N)O2` (stereo not given): above 100 µM; for `COc1cc(/C=C/C(=O)O)ccc1C(=O)OCc1ccccc1`: above 100 µM.
On the same count and under the same terms, the same measure for `O=C(CC(=O)c1ccccc1)CC(O)(c1ccccc1)c1ccccc1`: 16.3 µM.
`Cc1cccc(C(C)C)c1NC(=O)CC1Sc2ccccc2NC1=O` (stereo not given): the TGI was above 100 µM.
The molecule `COc1cccc2c1C(=O)c1c(O)c3c(c(O)c1C2=O)C[C@@](O)(C(=O)CO)C[C@@H]3OC1CC(N)C(OC)C(C)O1` (stereo not given in full) registered a TGI of 0.217 µM.
With `CC(C)(C)NC(=O)N1N=C(c2ccccc2)C1c1ccccc1` (stereo not given), the TGI was above 100 µM.
The same measure, in the same setting: the same measure for `COc1cc2c(cc1O)C1C(O)C(O)C=C3CCN(C2)C31` (stereo not given): 10.1 µM; for `CC(C)=CCc1c(O)ccc2ccc(=O)oc12`: above 100 µM.
On the same count and under the same terms, the same measure for `COC(=O)C1C=CN(N(C)C)C2=C1C(=O)c1c(O)cccc1C2=O` (stereo not given): 3.03 µM.

In the next experiment the test system is NCI-H522 lung. The experiment in a line: inhibition of tumour cell growth, NCI panel, 48 h.
The molecule `CC#C[P+](c1ccccc1)(c1ccccc1)c1ccccc1` registered a TGI of 0.924 µM.
